Data from patent US11019820B2 (BASF SE, priority 2013, dated 2021).
Read-outs that look alike come from different tables or passages of the source.

Experiments:
Assay type in all cases: in vivo
Anthonomus grandis = test: Boll weevil (Anthonomus grandis) diet microtiter plate test; settings: 120 h, read-out: mortality in comparison with untreated controls (egg and larval mortality)
Method: For evaluating control of boll weevil (Anthonomus grandis) the test unit consisted of 96-well-microtiter plates containing an insect diet and 5-10 A. grandis eggs.
The compounds were formulated using a solution containing 75% v/v water and 25% v/v DMSO. Different concentrations of formulated compounds were sprayed onto the insect diet at 5 μl, using a custom built micro atomizer, at two replications.
After application, microtiter plates were incubated at about 25±1° C. and about 75±5% relative humidity for 5 days. Egg and larval mortality was then visually assessed.

Myzus persicae = test: Green peach aphid (Myzus persicae) systemic artificial diet test; settings: 72 h, read-out: mortality in comparison with untreated controls (aphid mortality)
Source text: For evaluating control of green peach aphid (Myzus persicae) through systemic means the test unit consisted of 96-well-microtiter plates containing liquid artificial diet under an artificial membrane.
The compounds were formulated using a solution containing 75% v/v water and 25% v/v DMSO. Different concentrations of formulated compounds were pipetted into the aphid diet, using a custom built pipetter, at two replications.
After application, 5-8 adult aphids were placed on the artificial membrane inside the microtiter plate wells. The aphids were then allowed to suck on the treated aphid diet and incubated at about 23±1° C. and about 50±5% relative humidity for 3 days. Aphid mortality and fecundity was then visually assessed.

Heliothis virescens = test: Tobacco budworm (Heliothis virescens) diet microtiter plate test; settings: 120 h, read-out: mortality in comparison with untreated controls (egg and larval mortality)
Method: For evaluating control of tobacco budworm (Heliothis virescens) the test unit consisted of 96-well-microtiter plates containing an insect diet and 15-25 H. virescens eggs. The compounds were formulated using a solution containing 75% v/v water and 25% v/v DMSO. Different concentrations of formulated compounds were sprayed onto the insect diet at 10 μl, using a custom built micro atomizer, at two replications.
After application, microtiter plates were incubated at about 28±1° C. and about 80±5% relative humidity for 5 days. Egg and larval mortality was then visually assessed.

Megoura viciae = test: Vetch aphid (Megoura viciae) leaf disk test; settings: foliar, 120 h, read-out: mortality in comparison with untreated controls (aphid mortality)
Method: For evaluating control of vetch aphid (Megoura viciae) through contact or systemic means the test unit consisted of 24-well-microtiter plates containing broad bean leaf disks.
The compounds were formulated using a solution containing 75% v/v water and 25% v/v DMSO. Different concentrations of formulated compounds were sprayed onto the leaf disks at 2.5 μl, using a custom built micro atomizer, at two replications.
After application, the leaf disks were air-dried and 5-8 adult aphids placed on the leaf disks inside the microtiter plate wells. The aphids were then allowed to suck on the treated leaf disks and incubated at about 23±1° C. and about 50±5% relative humidity for 5 days. Aphid mortality and fecundity was then visually assessed.

Dichromothrips corbetti = test: Orchid thrips (Dichromothrips corbetti) floral-immersion test; settings: read-out: mortality in comparison with untreated controls
Method: Dichromothrips corbetti adults used for bioassay were obtained from a colony maintained continuously under laboratory conditions. For testing purposes, the test compound is diluted in a 1:1 mixture of acetone:water (vol:vol), plus 0.01% vol/vol Alkannuls® EL 620 surfactant.
Thrips potency of each compound was evaluated by using a floral-immersion technique. Plastic petri dishes were used as test arenas. All petals of individual, intact orchid flowers were dipped into treatment solution and allowed to dry. Treated flowers were placed into individual petri dishes along with about 20 adult thrips. The petri dishes were then covered with lids. All test arenas were held under continuous light and a temperature of about 28° C. for duration of the assay. After 3 days, the numbers of live thrips were counted on each flower, and along inner walls of each petri dish. The percent mortality was recorded 72 hours after treatment.

Nephotettix virescens = test: Rice green leafhopper (Nephotettix virescens) rice seedling spray test; settings: read-out: mortality in comparison with untreated controls
Method: Rice seedlings were cleaned and washed 24 hours before spraying. The active compounds were formulated in 50:50 acetone:water (vol:vol), and 0.1% vol/vol surfactant (EL 620) was added. Potted rice seedlings were sprayed with 5 ml test solution, air dried, placed in cages and inoculated with 10 adults. Treated rice plants were kept at about 28-29° C. and relative humidity of about 50-60%. Percent mortality was recorded after 72 hours.

Nilaparvata lugens = test: Rice brown plant hopper (Nilaparvata lugens) rice seedling spray test; settings: read-out: mortality in comparison with untreated controls
Method: Rice seedlings were cleaned and washed 24 hours before spraying. The active compounds were formulated in 50:50 acetone:water (vol:vol) and 0.1% vol/vol surfactant (EL 620) was added. Potted rice seedlings were sprayed with 5 ml test solution, air dried, placed in cages and inoculated with 10 adults. Treated rice plants were kept at about 28-29° C. and relative humidity of about 50-60%. Percent mortality was recorded after 72 hours.

Tetranychus spp = test: Spider mite (Tetranychus spp) potted cotton plant spray test; settings: sprayed potted cotton plants, 72 hours after treatment, read-out: mortality in comparison with untreated controls
Method: The active compound is dissolved at the desired concentration in a mixture of 1:1 (vol:vol) distilled water:acetone. The test solution is prepared at the day of use. Potted cotton plants at two weeks of age were cleaned, air dried and inoculated with approximately 50 mites of various stages. The potted plants are sprayed after the pest population has been recorded. Percent mortality is recorded 72 hours after treatment.

[1] = 500 ppm, sprayed rice seedlings, after 72 hours

CCn1c([O-])c(-c2cc(Cl)cc(Cl)c2)c(=O)[n+]2c1COC2c1ccc(Cl)nc1 (centres unmarked) [Compound C-44]
> 75%: mortality at 2500 ppm (Anthonomus grandis) | mortality at 2500 ppm (Myzus persicae) | mortality at 2500 ppm (Heliothis virescens) | mortality at 2500 ppm (Megoura viciae)

C[n+]1c([O-])c(-c2ccccc2)c(=O)n2c1CCC2c1ccc(Cl)nc1 (centres unmarked) [Compound C-1]
> 75%: mortality at 2500 ppm (Myzus persicae) | mortality at 500 ppm (Dichromothrips corbetti; 72 h) | mortality at 500 ppm (Nephotettix virescens; 72 h) | mortality at 500 ppm (Nilaparvata lugens; 72 h) | mortality at 2500 ppm (Heliothis virescens) | mortality at 2500 ppm (Megoura viciae)

CN1C(=O)C(c2ccccc2)=C([O-])[N+]2=C(c3cnc(Cl)s3)CSC12 (centres unmarked) [Compound C-38]
> 75%: mortality at 2500 ppm (Myzus persicae; 2500 ppm, in aphid diet, 3 days) | mortality at 500 ppm (Dichromothrips corbetti; 500 ppm, floral immersion, 72 hours after treatment) | mortality at 500 ppm (Nephotettix virescens; [1]) | mortality at 500 ppm (Nilaparvata lugens; [1]) | mortality at 2500 ppm (Heliothis virescens; 2500 ppm, sprayed onto insect diet, 5 days) | mortality at 2500 ppm (Megoura viciae; 2500 ppm, sprayed broad bean leaf disks, 5 days)

CC[n+]1c([O-])c(-c2ccccc2)c(=O)n2c1CCCC2c1ccc(Cl)nc1 (centres unmarked) [Compound C-9]
> 75%: mortality at 2500 ppm (Myzus persicae) | mortality at 500 ppm (Tetranychus spp) | mortality at 2500 ppm (Megoura viciae)

Cn1c2[n+](c([O-])c(-c3ccccc3)c1=O)[C@@H](c1cnc(Cl)s1)CC2 [Compound C-42]
> 75%: mortality at 500 ppm (Dichromothrips corbetti; 72 h) | mortality at 500 ppm (Nephotettix virescens; 72 h) | mortality at 500 ppm (Nilaparvata lugens; 72 h) | mortality at 500 ppm (Tetranychus spp)
